# From article PMC6171417, “Carbonic anhydrase inhibition with a series of novel benzenesulfonamide-triazole conjugates” (Journal of Enzyme Inhibition and Medicinal Chemistry, 2018)
# How the values were obtained:
# Experiment in all cases: cells
# Set-up in all cases: species or system NCI human tumour cell line panel
# HL-60(TB) = settings: Homo sapiens, HL-60; growth inhibition (GI%), single dose
# MCF7 = settings: Homo sapiens, MCF7; growth inhibition (GI%), single dose
# M14 = settings: Homo sapiens, M14; growth inhibition (GI%), single dose
# SF-295 = settings: Homo sapiens, SF-295; growth inhibition (GI%), single dose
# NCI-H522 = settings: Homo sapiens, NCI-H522; growth inhibition (GI%), single dose
# KM12 = settings: Homo sapiens, KM12; growth inhibition (GI%), single dose
# PC-3 = settings: Homo sapiens, PC-3; growth inhibition (GI%), single dose
# HCT-15 = settings: Homo sapiens, HCT-15; growth inhibition (GI%), single dose
# HS 578T = settings: Homo sapiens, Hs-578T; growth inhibition (GI%), single dose
# SF-268 = settings: Homo sapiens, SF-268; growth inhibition (GI%), single dose
# UACC-257 = settings: Homo sapiens, UACC-257; growth inhibition (GI%), single dose
# SN12C = settings: Homo sapiens, SN12C; growth inhibition (GI%), single dose
# SR = settings: Homo sapiens, SR; growth inhibition (GI%), single dose
# NCI-H226 = settings: Homo sapiens, NCI-H226; growth inhibition (GI%), single dose
# UACC-62 = settings: Homo sapiens, UACC-62; growth inhibition (GI%), single dose
# A549/ATCC = settings: Homo sapiens, A549; growth inhibition (GI%), single dose
# MOLT-4 = settings: Homo sapiens, MOLT-4; growth inhibition (GI%), single dose
# SNB-75 = settings: Homo sapiens, SNB-75; growth inhibition (GI%), single dose
# MDA-MB-468 = settings: Homo sapiens, MDA-MB-468; growth inhibition (GI%), single dose
# LOX IMVI = settings: Homo sapiens, LOX IMVI; growth inhibition (GI%), single dose
# UO-31 = settings: Homo sapiens, UO-31; growth inhibition (GI%), single dose
# OVCAR-5 = settings: Homo sapiens, OVCAR-5; growth inhibition (GI%), single dose
# EKVX = settings: Homo sapiens, EKVX; growth inhibition (GI%), single dose
# HOP-62 = settings: Homo sapiens, HOP-62; growth inhibition (GI%), single dose
# 786-0 = settings: Homo sapiens, 786-0; growth inhibition (GI%), single dose
# T-47D = settings: Homo sapiens, T47D; growth inhibition (GI%), single dose
# SF-539 = settings: Homo sapiens, SF-539; growth inhibition (GI%), single dose
# RPMI-8226 = settings: Homo sapiens, RPMI-8226; growth inhibition (GI%), single dose
# BT-549 = settings: Homo sapiens, BT-549; growth inhibition (GI%), single dose
# A498 = settings: Homo sapiens, A498; growth inhibition (GI%), single dose
smiles,measurement,setting,value
"N#Cc1nnn(-c2ccc(S(N)(=O)=O)cc2)c1NC(=O)CCl [compound 5, 5]",inhibition at 10 µM,HL-60(TB),22.5%
same,inhibition at 10 µM,MCF7,9.1%
same,inhibition at 10 µM,M14,4.7%
same,inhibition at 10 µM,SF-295,1.8%
same,inhibition at 10 µM,NCI-H522,5.1%
same,inhibition at 10 µM,KM12,5.2%
same,inhibition at 10 µM,PC-3,10.3%
same,inhibition at 10 µM,HCT-15,4.1%
same,inhibition at 10 µM,HS 578T,99.8%
same,inhibition at 10 µM,SF-268,2.5%
same,inhibition at 10 µM,UACC-257,11.1%
same,inhibition at 10 µM,SN12C,11.8%
same,inhibition at 10 µM,SR,4.1%
same,inhibition at 10 µM,NCI-H226,4.6%
same,inhibition at 10 µM,UACC-62,3.4%
same,inhibition at 10 µM,A549/ATCC,7.2%
same,inhibition at 10 µM,MOLT-4,7.7%
same,inhibition at 10 µM,SNB-75,14.5%
same,inhibition at 10 µM,MDA-MB-468,1.3%
same,inhibition at 10 µM,LOX IMVI,5.5%
same,inhibition at 10 µM,UO-31,13.5%
same,inhibition at 10 µM,OVCAR-5,3.4%
same,inhibition at 10 µM,EKVX,8.6%
same,inhibition at 10 µM,HOP-62,7.9%
same,inhibition at 10 µM,786-0,2.1%
same,inhibition at 10 µM,T-47D,4.8%
same,inhibition at 10 µM,SF-539,1.3%
same,inhibition at 10 µM,RPMI-8226,8.7%
same,inhibition at 10 µM,BT-549,3.1%
same,inhibition at 10 µM,A498,8.6%
